This passage reports GI50 and TGI results from PubChem BioAssay (NCI).

What all share (experiment): growth of human tumour cells (NCI), 48 h
The subject of assay [1] is NCI-H23 lung.
Assay [2] has as its system SK-OV-3 ovarian.
Assay [3] concerns MCF7 breast.
Assay [4] relates to A549 NSCLC.
Assay [5] deals with KM20L2 colon.
The test system of assay [6] is SN12C renal.
For assay [7], the system named is RPMI-8226 leukemia.
Assay [8] deals with MOLT-4 leukemia.
In assay [9] the test system is MDA-MB-231 breast.
The test system of assay [10] is DU-145 prostate.

The structures appear in SMILES notation.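 The compound was tested at five concentrations on cells cultured in 96-well plates, with a 48-hour exposure period. Abbreviation: GI50, concentration required for 50% inhibition of growth. The concentration for full growth arrest is given as TGI.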

Regarding `CS(=O)(=O)[O-].CS(=O)(=O)[O-].NC1CCCCC1N.[Pt+4]` (configuration not stated), the GI50 was 88 µM in assay [1]; above 100 µM in assay [2]; 66.3 µM in assay [3]; 80.3 µM in [4]; above 51.3 µM in assay [5]; above 84.7 µM in assay [6]. Besides, the GI50 in assay [7] was 17.7 µM; in assay [8], 29 µM. The TGI in assay [1], in assay [2], in assay [3], in assay [4], in assay [5] and in assay [6] was above 100 µM in each case. For the same molecule, the TGI in assay [7] and in assay [8] was above 100 µM throughout.

For `CCN(CC)/[N+]([O-])=N/O`, the TGI in [1], in assay [2], in [4], in assay [5], in [6] and in assay [8] was above 100 µM each time.

For the molecule `Cn1c(=O)n(CC2CS2)c2ccccc21` (configuration not stated), the TGI in assay [2], in assay [4], in assay [5], in [6], in [7] and in assay [8] was above 100 µM in each case.

For the molecule `C[C@]12CCC(=O)C=C1CC[C@@H]1[C@@H]2[C@@H](O)C[C@@]2(C)[C@H]1CC[C@]2(O)C(=O)COC(=O)CCC1CCCC1`, the TGI in assay [1], in assay [2], in assay [4], in assay [5], in assay [6] and in assay [8] was above 100 µM each time.

Regarding `COC(=O)/C=c1/c2ccccc2n2c1c1ccccc1[n+]2C`, the TGI in assay [9] worked out at 26 µM; in assay [1], 11.4 µM; in assay [2] it was 6.93 µM; in assay [3], 26.5 µM; in assay [4], 24.1 µM; in assay [10], 36.3 µM. The TGI in [6] is 16.4 µM; in assay [7] it was 9.67 µM; in [8] it was above 100 µM.

Consider `COc1ccc(OC)c(C[P+](c2ccccc2)(c2ccccc2)c2ccccc2)c1`, for which the TGI in assay [9] was 34.9 µM; in [1], 11.8 µM; in [2] it was 11 µM; in [3], above 40.7 µM; in assay [4], above 56.4 µM; in [10], above 79.4 µM. Also, the TGI in [6] was above 100 µM; in assay [7] it was 6.39 µM; in [8] it was above 35.3 µM.

`CC(=O)NC(=O)NC1=NCCC(=O)N1CCc1c[nH]c2ccccc12`: the TGI in assay [9], in assay [1], in [2], in assay [3], in [4] and in [10] was above 100 µM each time. For the same molecule, the TGI in [6], in assay [7] and in [8] was above 100 µM throughout.

For `Nn1c(Sc2nc3ccccc3c(=O)n2N)nc2ccccc2c1=O`, the TGI in assay [9] turned out to be 24.4 µM; in assay [1], 5.43 µM; in assay [2], 54.6 µM; in assay [3] it was 27.4 µM; in assay [4], 39 µM; in [10], 56.8 µM. The TGI was found to be 18.8 µM in assay [6], 11.5 µM in assay [7] and 3.69 µM in assay [8].

For the molecule `Cc1cn(CCOCCOC(=O)NC(CCCNC(N)=O)C(=O)O)c(=O)[nH]c1=O` (configuration not stated), the TGI in [9], in assay [1], in [2], in [3], in [4] and in assay [10] was above 100 µM each time. In addition, the TGI in [6], in assay [7] and in assay [8] was above 100 µM each time.

`COC(=O)C1CC23C=CCN4CC(C2C)C2(c5ccccc5NC12)C43` (configuration not stated): the TGI in assay [9], in assay [1], in [2], in assay [3], in assay [4] and in assay [10] was above 100 µM throughout. Further, the TGI in [6], in assay [7] and in assay [8] was above 100 µM in each case.

As to `Clc1nc2c(C#Cc3ccccc3)ncnc2n1C1CCCCO1` (configuration not stated), the TGI in assay [9] was 48.4 µM; in assay [1], 33.5 µM; in assay [2], above 100 µM; in [3] it was 20.9 µM; in assay [4], 37.3 µM; in assay [10], 63.2 µM. In addition, the TGI amounted to 23 µM in assay [6], 35.8 µM in assay [7] and 51.2 µM in assay [8].

In the case of `O=C(O)COc1cc(-c2ccccc2)nc2ccccc12`, the TGI in [9], in assay [1], in assay [2], in [3], in assay [4] and in assay [10] was above 100 µM in each case. Further, the TGI in [6], in [7] and in assay [8] was above 100 µM in each case.

Consider `Cc1c(C#N)c(=N)oc2ccccc12`, for which the TGI in assay [9], in assay [1], in assay [2], in assay [3], in [4] and in [10] was above 100 µM each time. Further, the TGI in assay [6], in assay [7] and in assay [8] was above 100 µM each time.

Consider `Cc1nc2cccc(F)c2c(=O)n1-c1nnc(C(F)(F)F)s1`, for which the TGI in assay [9], in assay [1], in [2], in assay [3], in assay [4] and in [10] was above 10 µM each time. Further, the TGI in [6], in [7] and in [8] was above 10 µM in each case.

As for `Nc1ccc2c(c1)NC(=O)[C@@H]1CCCN1C2=O`, the TGI in [9], in assay [1], in assay [2], in assay [3], in assay [4] and in assay [10] was above 100 µM throughout. Further, the TGI in assay [6], in assay [7] and in assay [8] was above 100 µM each time.

For `CC(C)(C)C(=O)N1CCN(C=O)C1=S`, the TGI in assay [9] was above 100 µM; in assay [1] it was above 100 µM; in assay [2], above 100 µM; in [3], 64.5 µM; in assay [4], above 100 µM; in assay [10], above 100 µM. For the same molecule, the TGI in assay [6], in [7] and in [8] was above 100 µM in each case.

As to `COc1cc(S(=O)(=O)Nc2ccc(-c3csc(/N=C\c4ccccc4)n3)cc2)ccc1Cl`, the TGI in [9] was above 100 µM; in assay [1], above 100 µM; in assay [2] it was above 100 µM; in [3], 49.9 µM; in assay [4], above 100 µM; in assay [10], above 100 µM. In addition, the TGI is above 100 µM in assay [6], above 100 µM in [7] and 52.1 µM in assay [8].

As for `COC(=O)/C=C1\C(=O)C=C2[C@@H]3C[C@H]4C[C@H](CC[C@@]4(C)N21)C3(C)NC(C)=O` (some centres not stated), the TGI is 56.2 µM in assay [9]; above 60.6 µM in assay [1]; 55.7 µM in [2]; 68.7 µM in [3]; above 57.4 µM in [4]; 32.8 µM in [10]. Besides, the results for the TGI in assay [6], in assay [7] and in [8] were 26.6 µM, above 100 µM and 34.3 µM, respectively.

As for `CCN(CC)C1Oc2cc3c(cc2C(c2cc(OC)c(OC)c(OC)c2)C1C)OCO3` (configuration not stated), the TGI in [9] was 65.9 µM; in [1], above 49 µM; in assay [2] it was above 61.7 µM; in assay [3] it was above 50 µM; in [4] it was above 46.8 µM; in [10], above 91.4 µM. Further, the TGI in [6] is above 53.8 µM; in assay [7] it was 20.2 µM; in assay [8], 13.1 µM.

For the molecule `CC1=CC[C@](C)(O)[C@@]2(C)CC[C@H]3C(=C(C)C)C(=O)C[C@]3(C)C[C@H]12`, the TGI in assay [9], in assay [1], in [2], in [3], in assay [4] and in assay [10] was above 50 µM in each case. In addition, the TGI in assay [6] was above 50 µM; in [7], 26.2 µM; in assay [8], 25.7 µM.

As for `O=C1c2ccccc2C(=O)c2nn(N=P(CP(=Nn3nc4c(n3)C(=O)c3ccccc3C4=O)(c3ccccc3)c3ccccc3)(c3ccccc3)c3ccccc3)nc21`, the TGI in assay [9], in assay [1], in assay [2], in assay [3], in assay [4] and in assay [10] was above 100 µM each time. Also, the TGI in [6], in [7] and in assay [8] was above 100 µM in each case.
